Data from US6407081B1, “Method for inhibiting cytokine production by cells” (Previsan AG, priority 1997, dated 2002).

How the values were obtained:
[1] = system: Peripheral mononuclear blood cells (PMBC); test: Cytotoxic effects on the PBMC cultures of Examples 1 and 2; type: cell-based, human; conditions: at the ADA concentrations reducing cytokine production in Examples 1 and 2
[2] = system: IL-5; test: IL-5 production by PHA-activated PBMC, ELISA (Example 1); type: cell-based, human; conditions: for production of IL-5 inhibited, on average: average of five donors, PBMC; for IL-5 content as a percentage of the control: PHA-activated PBMC, 72 h
Procedure: Peripheral mononuclear blood cells (PMBC) from five healthy human donors are isolated in the conventional manner from 50 ml of their blood and then purified by density gradient centrifugation (Lymphoprep). The cells (5.10^6 cells/ml) are activated by 0.3 μg/ml of phytohaemagglutinin (PHA) and cultured for 72 hours at 37° C. in the presence of various concentrations of ADA (20, 10, 5, 1, 0.2 and 0.04 μg/ml). The culture medium consists of RPMI 1640 complemented with 10% foetal calf serum and glutamine and contains mercaptoethanol. The ADA solutions are prepared in dimethyl sulfoxide (DMSO), the working concentration of DMSO during the experiments being 0.1%. Said experiments are performed on 96 well plates (200 μl/well) and, once the plates have been centrifuged at 1500 revolutions per minute for 10 minutes, the supernatants are harvested and the IL-5 content thereof analysed by an ELISA immunoenzymatic assay.

[3] = system: IL-5; test: IL-5 production by purified T lymphocytes (Example 3); type: cell-based, human; conditions: mean of 2 donors
Procedure: (§1) PBMC from three healthy donors are purified by density gradient […] (LymphoPrep). The T lymphocytes are obtained from 15.10^6 PBMC incubated for 20 to 30 minutes in a waterbath at 37° C. with 0.8 ml of a mixture of LymphoKwik® (One Lambda, Inc., CA, USA). This latter substance is a mixture of complement and specific antibody for antigen units of the cell membrane which lyses the unwanted cells (B lymphocytes, monocytes, etc.). The cells are centrifuged and then washed twice.
(§2) These cultures are treated with various concentrations of ADA.
(§3) In Examples 3 and 4, the results are stated as a percentage taking the medium without ADA as 100%. The concentrations corresponding to 100% are respectively 90,000 pg/ml for IL-2, 1100 pg/ml for IL-5, 1900 pg/ml for IFN-γ and 2870 pg/ml for TNF-α. The results are the mean of independent ELISA assays.

[4] = system: TNF-α; test: TNF-α production by purified CD4 T lymphocytes stimulated by PMA + anti-CD28 (Example 4); type: cell-based, human; conditions: for TNF-α in % relative to control: purified CD4 T lymphocytes, PMA + anti-CD28, 5 donors
Procedure: (§4) Purified CD4 T lymphocytes (90% purity) stimulated by PMA (phorbol myristate acetate)+anti-CD28 antibodies from healthy donors are treated with various concentrations of ADA.
as §3

[5] = system: IFN-γ; test: Interferon-γ production by purified CD4 T lymphocytes stimulated by PMA + anti-CD28 (Example 4); type: cell-based, human; conditions: for IFN-γ in % relative to control: purified CD4 T lymphocytes, PMA + anti-CD28, mean of 2 donors
Procedure: as §4, §3

[6] = system: IL-2; test: IL-2 production by purified CD4 T lymphocytes stimulated by PMA + anti-CD28 (Example 4); type: cell-based, human; conditions: for IL-2 in % relative to control: purified CD4 T lymphocytes, PMA + anti-CD28, mean of 2 donors
Procedure: as §4, §3

[7] = system: IL-2; test: In vivo serum IL-2 release after anti-CD3 145-2C11 mAb (Example 5); design: species or system BALB/C mice; conditions: ADA 100 mg/kg single injection one day before 145-2C11 mAb; sera at 2, 4, 8, 24 h; FIG. 1
Procedure: A single intraparenteral injection of azodicarbon-amide (ADA) at a dose of 100 mg/kg bodyweight or corresponding carrier is made into BALB/C mice (Harlan, Zeist, Netherlands) one day before intraparenteral inoculation of 25 μg of hamster 145-2C11 mAb, an anti-mouse CD3 mAb which brings about massive in vivo activation of polyclonal T cells, resulting in systemic cytokine release. Sera are collected 2, 4, 8 and 24 hours after the anti-CD3 treatment and the cytokine (IL-2, IL-4) levels are determined by an ELISA test (Genzyme).
FIGS. 1 and 2 are graphs showing, on the y-axis, the quantities of IL-2 and IL-4 in the serum as a mean of 5 test animals. […] The empty bars show the results obtained with the carrier and the shaded bars show those obtained with prior ADA treatment.

[8] = system: IL-5; test: IL-5 production by purified CD4 T lymphocytes stimulated by PMA + anti-CD28 (Example 4); type: cell-based, human; conditions: for IL-5 in % relative to control: purified CD4 T lymphocytes, PMA + anti-CD28, 1 donor
Procedure: as §4, §3

[9] = system: IFN-γ; test: Interferon-γ production by purified T lymphocytes (Example 3); type: cell-based, human; conditions: mean of 3 donors
Procedure: as §1, §2, §3

[10] = 20 μg/ml of ADA, donors of Examples 3 and 4

SMILES: NC(=O)N=NC(N)=O [ADA, azodicarbon-amide]
- cytotoxic effects [1]: no cytotoxic effects
- production of IL-5 inhibited, on average ([2]; 0.2 μg/ml of ADA): 45%
- production of IL-5 inhibited, on average ([2]; 10 μg/ml of ADA): 80%
- production of IL-5 inhibited, on average ([2]; 20 μg/ml of ADA): 90%
- IL-5 content as a percentage of the control ([2]; ADA 0.04 μg/ml, Donor 1): 83 % of control
- IL-5 content as a percentage of the control ([2]; ADA 0.04 μg/ml, Donor 2): 50 % of control
- IL-5 content as a percentage of the control ([2]; ADA 0.04 μg/ml, Donor 3): 58 % of control
- IL-5 content as a percentage of the control ([2]; ADA 0.04 μg/ml, Donor 4): 46 % of control
- IL-5 content as a percentage of the control ([2]; ADA 0.04 μg/ml, Donor 5): 55 % of control
- IL-5 content as a percentage of the control ([2]; ADA 0.04 μg/ml, Mean of donors): 58 % of control
- IL-5 content as a percentage of the control ([2]; ADA 0.2 μg/ml, Donor 1): 54 % of control
- IL-5 content as a percentage of the control ([2]; ADA 0.2 μg/ml, Donor 2): 42 % of control
- IL-5 content as a percentage of the control ([2]; ADA 0.2 μg/ml, Donor 3): 63 % of control
- IL-5 content as a percentage of the control ([2]; ADA 0.2 μg/ml, Donor 4): 57 % of control
- IL-5 content as a percentage of the control ([2]; ADA 0.2 μg/ml, Donor 5): 58 % of control
- IL-5 content as a percentage of the control ([2]; ADA 0.2 μg/ml, Mean of donors): 55 % of control
- IL-5 content as a percentage of the control ([2]; ADA 1 μg/ml, Donor 1): 48 % of control
- IL-5 content as a percentage of the control ([2]; ADA 1 μg/ml, Donor 2): 29 % of control
- IL-5 content as a percentage of the control ([2]; ADA 1 μg/ml, Donor 3): 57 % of control
- IL-5 content as a percentage of the control ([2]; ADA 1 μg/ml, Donor 4): 37 % of control
- IL-5 content as a percentage of the control ([2]; ADA 1 μg/ml, Donor 5): 49 % of control
- IL-5 content as a percentage of the control ([2]; ADA 1 μg/ml, Mean of donors): 44 % of control
- IL-5 content as a percentage of the control ([2]; ADA 5 μg/ml, Donor 1): 44 % of control
- IL-5 content as a percentage of the control ([2]; ADA 5 μg/ml, Donor 2): 2 % of control
- IL-5 content as a percentage of the control ([2]; ADA 5 μg/ml, Donor 3): 23 % of control
- IL-5 content as a percentage of the control ([2]; ADA 5 μg/ml, Donor 4): 31 % of control
- IL-5 content as a percentage of the control ([2]; ADA 5 μg/ml, Donor 5): 34 % of control
- IL-5 content as a percentage of the control ([2]; ADA 5 μg/ml, Mean of donors): 27 % of control
- IL-5 content as a percentage of the control ([2]; ADA 10 μg/ml, Donor 1): 29 % of control
- IL-5 content as a percentage of the control ([2]; ADA 10 μg/ml, Donor 2): 2 % of control
- IL-5 content as a percentage of the control ([2]; ADA 10 μg/ml, Donor 3): 28 % of control
- IL-5 content as a percentage of the control ([2]; ADA 10 μg/ml, Donor 4): 14 % of control
- IL-5 content as a percentage of the control ([2]; ADA 10 μg/ml, Donor 5): 31 % of control
- IL-5 content as a percentage of the control ([2]; ADA 10 μg/ml, Mean of donors): 21 % of control
- IL-5 content as a percentage of the control ([2]; ADA 20 μg/ml, Donor 1): 9 % of control
- IL-5 content as a percentage of the control ([2]; ADA 20 μg/ml, Donor 2): 2 % of control
- IL-5 content as a percentage of the control ([2]; ADA 20 μg/ml, Donor 3): 26 % of control
- IL-5 content as a percentage of the control ([2]; ADA 20 μg/ml, Donor 4): 5 % of control
- IL-5 content as a percentage of the control ([2]; ADA 20 μg/ml, Donor 5): 7 % of control
- IL-5 content as a percentage of the control ([2]; ADA 20 μg/ml, Mean of donors): 10 % of control
- IL-5 production, comparable tests in the absence of mercaptoethanol ([2]; culture medium without mercaptoethanol, compared with Table 1): relatively similar results
- IL-5 in % relative to control ([3]; ADA 1 μg/ml): 67 % relative to control
- IL-5 in % relative to control ([3]; ADA 5 μg/ml): 60 % relative to control
- IL-5 in % relative to control ([3]; ADA 10 μg/ml): 40 % relative to control
- IL-5 in % relative to control ([3]; ADA 20 μg/ml): 16 % relative to control
- production of TNF-α ([4]; 20 μg/ml of ADA, donors of Example 4): inhibited
- TNF-α in % relative to control ([4]; ADA 1 μg/ml): 90 % relative to control
- TNF-α in % relative to control ([4]; ADA 5 μg/ml): 48 % relative to control
- TNF-α in % relative to control ([4]; ADA 10 μg/ml): 32 % relative to control
- TNF-α in % relative to control ([4]; ADA 20 μg/ml): 14 % relative to control
- production of interferon-γ [5, 10]: inhibited
- IFN-γ in % relative to control ([5]; ADA 1 μg/ml): 73 % relative to control
- IFN-γ in % relative to control ([5]; ADA 5 μg/ml): 36 % relative to control
- IFN-γ in % relative to control ([5]; ADA 10 μg/ml): 15 % relative to control
- IFN-γ in % relative to control ([5]; ADA 20 μg/ml): 12 % relative to control
- IL-2 in % relative to control ([6]; ADA 1 μg/ml): 82 % relative to control
- IL-2 in % relative to control ([6]; ADA 5 μg/ml): 30 % relative to control
- IL-2 in % relative to control ([6]; ADA 10 μg/ml): 18 % relative to control
- IL-2 in % relative to control ([6]; ADA 20 μg/ml): 10 % relative to control
- secretion of IL-2 by lymphocytes ([6]; concentrations lower than 20 μg/ml of ADA, Examples 3 and 4): Even lower concentrations inhibit
- release of IL-2 into serum [7]: significant reduction
- production of IL-5 [8, 10]: inhibited
- IL-5 in % relative to control ([8]; ADA 1 μg/ml): 69 % relative to control
- IL-5 in % relative to control ([8]; ADA 5 μg/ml): 45 % relative to control
- IL-5 in % relative to control ([8]; ADA 10 μg/ml): 43 % relative to control
- IL-5 in % relative to control ([8]; ADA 20 μg/ml): 38 % relative to control
- IFN-γ in % relative to control ([9]; ADA 1 μg/ml): 82 % relative to control
- IFN-γ in % relative to control ([9]; ADA 5 μg/ml): 34 % relative to control
- IFN-γ in % relative to control ([9]; ADA 10 μg/ml): 14 % relative to control
- IFN-γ in % relative to control ([9]; ADA 20 μg/ml): 4 % relative to control
